According to US5942522A, “Antiviral compounds and antihypertensive compounds” (Schering Corporation, priority 1997, dated 1999):
Converted amounts (≈) assume the structure as drawn. Like-named read-outs stand apart in the source and are kept apart here. Blank lines part the entries; values can stand above or below the molecule they belong to.

Tests used:
[1] = system: herpes virus; conditions: added to lidocaine or lidocaine hydrochloride; cited from earlier work
[2] = system: HSV-2 (strain MS); test: HSV-β-Gal assay: transient expression of beta galactosidase in transfected HeLa cells superinfected with HSV-2; type: cell-based; conditions: 24 h
Procedure: (§1) HeLa and Vero cell cultures were maintained in Eagles Minimal Essential Medium (EMEM) which was supplemented with glutamine, penicillin, streptomycin and 10% fetal calf serum (10% EMEM). Stock cultures of HSV-2 (strain MS available from ATCC VR-540) were grown in and harvested from Vero cells. Viral stocks were titered in Vero cells according to established procedures.
Plasmid pON 245^ori- contains the promoter of the HSV-1 thymidine kinase (tk) gene located immediately 5'of the E. coli lac Z gene. In this arrangement, the tk promoter controls transcription from the bacterial gene in transient expression assays. Additionally, an SV40 polyadenylation signal is present at the 3' end of the lac Z gene to allow for the efficient translation of the mRNA in eucaryotic cells. The expression of beta galactosidase in a transient assay using pON 245^ori- is dependent upon superinfection of the transfected cells with HSV. […] For example see U.S. application Ser. No. 07/435,491 filed Sep. 5, 1989, the disclosure of which is incorporated herein by reference thereto.
HeLa cells were seeded into 96 well microtiter plates and allowed to grow to 80% confluency (approximately 35000 cells/well). One half microgram of plasmid pON 245^ori- DNA was introduced into the cells of each well by the […] precipitation technique (Grahman and Van der Eb, 1973). Four to six hours later, the cells were rinsed with hank's Balanced Salt Solution (HBSS), overlaid with 10% EMEM and incubated at 37° C. At 24 hours post-transfection, cells were rinsed, overlaid with 10% EMEM again and re-incubated at 37° C. At 48 hours post-transfection, cells were rinsed and overlaid with either EMEM containing 2% fetal calf serum (2% EMEM), 2% EMEM containing HSV-2 (strain MS, Multiplicity of Infection [moi]=5 pfu/cell) or 2% EMEM containing HSV-2 and the appropriate concentration of Schering compound to be tested. Twenty-four hours later, the cells were harvested and assayed for beta galactosidase activity as described below.
All determinations of beta galactosidase activity were performed in 96 well microtiter plates. The intracellular level of beta galactosidase activity in each well was determined from cell lysates of the monolayer cultures. Aliquots were assayed by incubation in the presence of beta galactosidase substrate, 4-methylumbelliferyl-β-D-galactoside (MUG, 125 ug/ml, Sigma), for 2 hours. The generation of fluorescent product was quantified on a Microfluor microfluorimeter (Dynatech) after addition of 0.1M glycine, pH 10.3 (Spaete and Mocarski, 1985). The inhibitory activity of a compound was plotted versus the concentration and an IC50 value (the concentration of compound required to reduce beta glactosidase expression by 50%) was obtained for each compound tested.

[3] = system: HeLa cells; test: Compound toxicity assay: inhibition of HeLa cell translation (3H-leucine incorporation); type: cell-based; conditions: Homo sapiens, Table II^1, read-out: Cytoxicity 3H-LEU assay IC50
[4] = target: T1, cGMP phosphodiesterase (cGMP-PDE) (Bos taurus, UniProt Q28156); test: Inhibition of cGMP phosphodiesterase in vitro; type: biochemical, bovine; conditions: 1 μM 3H-cGMP, pH 7.5, 25 min, room temperature
T1 construct: is a homogeneous enzyme obtained from bovine lung; from tissue; host or cells: bovine lung

[5] = Compound toxicity assay: inhibition of HeLa cell translation (3H-leucine incorporation); type: cell-based; conditions: human; Table II; HeLa cells; read-out: Cytotoxicity 3H-LEU assay IC50
Procedure: as §1
HeLa cells were treated with inhibitory compound for 24 hours, after which levels of translational activity were assayed.
For assay of translational activity, HeLa cultures were grown to 80% confluency in 96 well microtiter plates, treated with appropriate concentrations of compound in 2% EMEM during an overnight incubation at 37° C., then rinsed with HBSS and overlaid with […] of 2% EMEM containing 8 uCi of tritiated leucine (^3 H-LEU, […], Amersham Corp., Arlington Heights, Ill.). After a 1 hour incubation at 36.5°C., the cells were rinsed twice with phosphate buffered saline (PBS) and lysed in 400 ul/well of 1×PBS, 0.5% sodium dodecyl sulphate (SDS). After a 10 min incubation at 36.5° C., the contents of the well were transferred to a well in a Millititer HA microfiltration plate (Millipore Corp., Bedford, Mass.). The TCA insoluble proteins were precipitated onto the filter disc by a 10 min fixation with 5% TCA, followed by filtration under vacuum and three 10 minute rinses with 95% ethanol. The filters were dried at room temperature, cut from the milltitier plate and transferred to scintillation vials. TCA precipitable counts were assayed in 5 ml of Scintisol (Isolab, Akron, Ohio). The inhibitory activity of a compound was plotted versus the concentration and an IC50 value (that concentration of the compound required to decrease cellular translational activity by 50%) was derived for each compound.

[6] = Blood pressure in conscious spontaneously hypertensive rats (SHR); type: in vivo
Procedure: The ability of the compounds to lower blood pressure can be assessed in vivo in conscious spontaneously hypertensive rats (SHR). SHR are purchased from Taconic Farms, Germantown, N.Y. and are approximately 16-18 weeks old when anesthetized with ether. The caudal ventral tail) artery is cannulated with polyethylene tubing (PE50) and blood pressure and heart rate are recorded as described by Baum, T. et. al, J. Cardiovasc. Pharmacol. Vol 5, pp. 665-667, (1983). Rats are placed into pastic cylindrical cages where they rapidly recover consciousness. Blood pressure and heart rate are allowed to stabilize for approximately 90 minutes prior to compound administration. Compounds are administered orally as solutions or suspensions in 0.4% aqueous methylcellulose vehicle via a feeding needle. The compound or 0.4% aqueous methylcellulose vehicle are given in a volume of 4 ml/kg to SHRs that had been fasted overnight. Alternatively,compounds are administered intravenously. The compound is solubilized with a minimum amount of an organic solvent such as ethanol or dimethylsulfoxide and given in physiological saline. Activity is expressed as the fall in mean blood pressure (MBP) in millimeters of mercury (mm Hg). Compound-induced changes are compared with the changes in an appropriate placebo group.

[7] = system: HSV-2, strain MS; test: Prophylactic guinea pig model of HSV infection; type: in vivo; conditions: 60 mg/kg s.c. (test compounds) T.I.D., 10 days, first dose 24 h before infection; for MSL (Maximum Lesion score): scale of 1-4
Procedure: The in vivo assessment of anti-HSV efficacy was determined in the prophylactic guinea pig model of HSV infection described by Stansberry et al (1982). Dosing of guinea pigs comprised an initial treatment with test compound given 24 hours prior to virus infection and subsequent administration of the compound every eight hours (T.I.D.) for a total of 10 days. Test compounds were administered subcutaneously in 0.5% buffered methyl celluslose at a dose of 60 mg per kg body weight of the animal. Animals were monitored daily for the development of genital lesions and neurological symptomology, both of which were recorded and compared to the results obtained with parallel groups which received placebo or acyclovir treatment. Efficacy was evaluated for each compound by scoring the ability of the compound to ameliorate genital lesions produced by infection with HSV-2, strain MS, expressed as Maximum Lesion Scores (MLS) on a scale of 1 (least lesions) to 4 (severe lesions).

[8] = system: HSV-1; conditions: cited from earlier work
[9] = system: HSV-2; conditions: cited from earlier work
[10] = Human alphaherpesvirus 2, Table II^1, HeLa cells, HSV-2 strain MS, read-out: Anti-HSV activity HSV-β-Gal assay IC50

Structure (SMILES): CC(C)(CO)[C@@H](O)C(=O)NCCC(=O)O [pantothenic acid]
enhancement of antiviral activity of lidocaine or lidocaine hydrochloride [1]: significantly enhances

Structure (SMILES): CC(C)(CO)[C@@H](O)C(=O)NCCCO [dexpanthenol]
enhancement of antiviral activity of lidocaine or lidocaine hydrochloride [1]: significantly enhances

Structure (SMILES): CCOC(=O)c1c(OC)c2cc(C)ccc2n(Cc2ccccc2)c1=O [Compound 7, 1-benzyl-3-ethoxycarbonyl-4-methoxy-6-methyl-2(1H)-quinolinone]
IC50 ([4]; Table VII): 8 µM
CC50 at 24 h [5]: 37 µg/mL (≈ 105 µM)
IC50 ([2]; Human alphaherpesvirus 2, HeLa, read-out: Anti-HSV activity, HSV-β-GAL assay IC50): 3 µg/mL (≈ 8.54 µM)
MBP (fall in mean blood pressure) ([6]; Table VII, at 25 mpk (P.O.)): 0 mm Hg

Structure (SMILES): Nc1nc2c(ncn2COCCO)c(=O)[nH]1 [Acyclovir, 9-[(2-hydroxyethoxy)methyl]guanine, reference compound]
Neurological dysfunction (percentage animals developing loss of bladder/hindlimb control) [7]: 44%
MSL (Maximum Lesion score) [7]: 1.61

Structure (SMILES): CCCCCCn1c(=O)c(CO)c(OC)c2cc(C)ccc21 [Compound 9, 1-Hexyl-3-Hydroxymethyl-4-Methoxy-6-Methyl-2(1H)-Quinolinone]
IC50 ([4]; Table VI): 6 µM
CC50 at 24 h [5]: 25 µg/mL (≈ 82.4 µM)
Neurological dysfunction (percentage animals developing loss of bladder/hindlimb control) [7]: 44%
MSL (Maximum Lesion score) [7]: 1.44
IC50 ([2]; Human alphaherpesvirus 2, Table II, HeLa cells, HSV-2 strain MS, read-out: Anti-HSV activity, HSV-β-GAL assay IC50): < 3 µg/mL

Structure (SMILES): CCN(CC)CC(=O)Nc1c(C)cccc1C [lidocaine, 2-(diethylamino)-N-(2,6-dimethylphenyl)acetamide]
antiviral activity in cell culture [8]: antiviral agent
antiviral activity in cell culture [9]: antiviral agent

Structure (SMILES): CCCCCCn1c(=O)c(C(=O)OCC)c(OC)c2cc(C)ccc21 [Compound 28, 1-hexyl-3-ethoxycarbonyl-4-methoxy-6-methyl-2(1H)-quinolinone]
IC50 ([4]; Table VI): 3 µM

Second part, led by results:

IC50 [2, 10]: 9.8 µg/mL (≈ 32.9 µM)
Structure (SMILES): Cc1c(OC(=O)c2cccn2C)ccc2c(N)cc(=O)oc12 [Compound 69, 4-Amino-7-(N-Methyl-Pyrrol-2-Carbonyloxy)-8-Methyl-Benzopyran-2-one]
IC50 [3]: 100 µg/mL (≈ 335 µM)

IC50 ([4]; Table VI): 4 µM
Structure (SMILES): CCOC(=O)c1c(OCCN(C)C)c2cc(C)ccc2n(Cc2ccccc2)c1=O [Compound 27]
MBP (fall in mean blood pressure) ([6]; 25 mpk p.o.): 19 mm of Hg
MBP (fall in mean blood pressure) ([6]; 50 mpk p.o.): 24 mm of Hg
MBP (fall in mean blood pressure) ([6]; 100 mpk p.o.): 59 mm of Hg

IC50 [2, 10]: 15.5 µg/mL (≈ 54.5 µM)
Structure (SMILES): Cc1c(OC(=O)c2ccc[nH]2)ccc2c(N)cc(=O)oc12 [Compound 70, 4-Amino-7-(Pyrrol-2-carbonyloxy)-8-Methyl-Benzopyran-2-one]
IC50 [3]: 74 µg/mL (≈ 260 µM)
